Reference: patent US20180193330A1, “ALKYLATED TETRAHYDROISOQUINOLINES FOR BINDING TO CENTRAL NERVOUS SYSTEM RECEPTORS” (Florida A&M University, priority 2017, published 2018)
Where a name gives a salt, the structure may show the parent alone. Read-outs that look alike come from different tables or passages of the source.

How the values were obtained:
5-HT2A receptor = 5-HT2A receptor (Homo sapiens, UniProt P28223); experiment: Receptor binding affinity at 5-HT2A (NIMH-PDSP radioligand binding)
D3 receptor = D3 receptor (Homo sapiens, UniProt P35462); experiment: Receptor binding affinity at dopamine D3 (NIMH-PDSP radioligand binding)
5-HT1A receptor = biological target: T1, 5-HT1A receptor (Homo sapiens, UniProt P08908); experiment: Receptor binding affinity at 5-HT1A (NIMH-PDSP radioligand binding)
T1 sequence (P08908 1-422): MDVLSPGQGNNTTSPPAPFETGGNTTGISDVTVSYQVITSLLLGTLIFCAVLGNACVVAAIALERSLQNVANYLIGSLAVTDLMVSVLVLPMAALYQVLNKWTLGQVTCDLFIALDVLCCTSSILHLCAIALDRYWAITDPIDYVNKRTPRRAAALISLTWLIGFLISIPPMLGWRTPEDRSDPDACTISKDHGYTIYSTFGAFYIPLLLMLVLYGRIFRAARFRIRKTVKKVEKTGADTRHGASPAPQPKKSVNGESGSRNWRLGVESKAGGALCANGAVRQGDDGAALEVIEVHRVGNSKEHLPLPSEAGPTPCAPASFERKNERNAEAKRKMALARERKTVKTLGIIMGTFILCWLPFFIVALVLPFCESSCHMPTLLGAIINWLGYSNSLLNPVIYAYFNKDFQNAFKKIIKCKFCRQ

D4 receptor = biological target: T2, D4 receptor (Homo sapiens, UniProt P21917); experiment: Receptor binding affinity at dopamine D4 (NIMH-PDSP radioligand binding)
T2 sequence (P21917 1-419): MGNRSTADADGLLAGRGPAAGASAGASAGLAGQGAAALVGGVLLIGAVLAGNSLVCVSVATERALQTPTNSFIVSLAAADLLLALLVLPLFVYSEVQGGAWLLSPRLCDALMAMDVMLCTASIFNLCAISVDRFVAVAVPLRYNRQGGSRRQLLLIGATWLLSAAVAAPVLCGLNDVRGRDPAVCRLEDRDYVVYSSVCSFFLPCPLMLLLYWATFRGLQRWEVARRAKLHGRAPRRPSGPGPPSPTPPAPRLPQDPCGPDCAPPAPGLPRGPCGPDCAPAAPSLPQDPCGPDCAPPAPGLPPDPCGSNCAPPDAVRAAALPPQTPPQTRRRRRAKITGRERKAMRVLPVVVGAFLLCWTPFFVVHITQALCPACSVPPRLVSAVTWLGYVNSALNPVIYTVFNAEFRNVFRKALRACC

histamine H1 receptor = histamine H1 receptor (Homo sapiens, UniProt P35367); experiment: Receptor binding affinity at histamine H1 (NIMH-PDSP radioligand binding)
5-HT2B receptor = 5-HT2B receptor (Homo sapiens, UniProt P41595); experiment: Receptor binding affinity at 5-HT2B (NIMH-PDSP radioligand binding)
5-HT2C receptor = biological target: T3, 5-HT2C receptor (Homo sapiens, UniProt P28335); experiment: Receptor binding affinity at 5-HT2C (NIMH-PDSP radioligand binding)
T3 sequence (P28335 33-458): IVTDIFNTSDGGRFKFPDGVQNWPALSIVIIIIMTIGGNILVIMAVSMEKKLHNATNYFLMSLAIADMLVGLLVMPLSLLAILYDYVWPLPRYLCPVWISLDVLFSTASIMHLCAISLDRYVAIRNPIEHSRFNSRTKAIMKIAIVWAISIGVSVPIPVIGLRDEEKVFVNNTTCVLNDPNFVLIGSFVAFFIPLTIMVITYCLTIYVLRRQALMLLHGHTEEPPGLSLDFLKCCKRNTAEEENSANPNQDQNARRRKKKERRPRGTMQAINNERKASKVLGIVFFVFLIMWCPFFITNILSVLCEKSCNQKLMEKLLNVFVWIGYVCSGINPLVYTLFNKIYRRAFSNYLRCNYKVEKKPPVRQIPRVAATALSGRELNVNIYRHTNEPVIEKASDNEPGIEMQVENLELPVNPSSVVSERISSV

5-HT7 receptor = 5-HT7 receptor (Homo sapiens, UniProt P34969); experiment: Receptor binding affinity at 5-HT7 (NIMH-PDSP radioligand binding)
D2 receptor = D2 receptor (Homo sapiens, UniProt P14416); experiment: Receptor binding affinity at dopamine D2 (NIMH-PDSP radioligand binding); details: Table 3, Group 1 analogs
[1] = Table 5, Group 3 analogs, Ki without SEM within 20% of mean

5-HT2A receptor, sequence (P28223 whole entry): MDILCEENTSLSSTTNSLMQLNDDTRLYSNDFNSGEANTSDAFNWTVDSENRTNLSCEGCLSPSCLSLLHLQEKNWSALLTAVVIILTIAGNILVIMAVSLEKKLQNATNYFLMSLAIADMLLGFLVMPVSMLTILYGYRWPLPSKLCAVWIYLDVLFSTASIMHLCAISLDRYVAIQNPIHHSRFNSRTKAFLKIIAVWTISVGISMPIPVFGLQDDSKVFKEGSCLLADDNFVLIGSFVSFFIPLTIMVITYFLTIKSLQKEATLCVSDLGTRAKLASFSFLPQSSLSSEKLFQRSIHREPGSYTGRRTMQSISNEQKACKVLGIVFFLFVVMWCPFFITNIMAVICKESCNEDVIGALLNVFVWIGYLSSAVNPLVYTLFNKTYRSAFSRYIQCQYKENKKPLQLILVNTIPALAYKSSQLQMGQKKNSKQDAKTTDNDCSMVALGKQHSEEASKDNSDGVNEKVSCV
histamine H1 receptor, sequence (P35367 whole entry, species assumed): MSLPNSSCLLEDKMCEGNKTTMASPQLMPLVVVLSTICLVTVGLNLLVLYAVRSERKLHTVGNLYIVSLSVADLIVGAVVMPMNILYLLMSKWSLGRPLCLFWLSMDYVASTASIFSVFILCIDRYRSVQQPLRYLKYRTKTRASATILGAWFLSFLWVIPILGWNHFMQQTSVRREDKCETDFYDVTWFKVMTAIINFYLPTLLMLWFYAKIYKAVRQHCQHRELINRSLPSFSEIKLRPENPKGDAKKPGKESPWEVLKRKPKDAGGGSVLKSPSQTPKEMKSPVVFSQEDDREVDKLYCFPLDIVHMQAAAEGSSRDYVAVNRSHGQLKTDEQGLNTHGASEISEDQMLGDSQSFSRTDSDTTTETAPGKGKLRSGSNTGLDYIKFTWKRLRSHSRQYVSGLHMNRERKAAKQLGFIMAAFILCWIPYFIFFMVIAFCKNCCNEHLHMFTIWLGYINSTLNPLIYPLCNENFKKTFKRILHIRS
D3 receptor, sequence (P35462 whole entry): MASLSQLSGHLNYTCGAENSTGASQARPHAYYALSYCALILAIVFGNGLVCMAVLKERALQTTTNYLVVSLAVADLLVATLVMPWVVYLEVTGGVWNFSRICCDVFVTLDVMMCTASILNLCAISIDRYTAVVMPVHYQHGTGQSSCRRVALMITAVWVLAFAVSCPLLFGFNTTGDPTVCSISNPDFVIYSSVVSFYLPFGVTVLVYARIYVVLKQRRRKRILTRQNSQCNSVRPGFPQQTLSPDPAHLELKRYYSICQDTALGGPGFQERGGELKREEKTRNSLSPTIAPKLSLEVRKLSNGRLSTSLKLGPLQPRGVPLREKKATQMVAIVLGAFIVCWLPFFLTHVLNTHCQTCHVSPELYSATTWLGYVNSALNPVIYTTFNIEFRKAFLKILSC
5-HT2B receptor, sequence (P41595 whole entry): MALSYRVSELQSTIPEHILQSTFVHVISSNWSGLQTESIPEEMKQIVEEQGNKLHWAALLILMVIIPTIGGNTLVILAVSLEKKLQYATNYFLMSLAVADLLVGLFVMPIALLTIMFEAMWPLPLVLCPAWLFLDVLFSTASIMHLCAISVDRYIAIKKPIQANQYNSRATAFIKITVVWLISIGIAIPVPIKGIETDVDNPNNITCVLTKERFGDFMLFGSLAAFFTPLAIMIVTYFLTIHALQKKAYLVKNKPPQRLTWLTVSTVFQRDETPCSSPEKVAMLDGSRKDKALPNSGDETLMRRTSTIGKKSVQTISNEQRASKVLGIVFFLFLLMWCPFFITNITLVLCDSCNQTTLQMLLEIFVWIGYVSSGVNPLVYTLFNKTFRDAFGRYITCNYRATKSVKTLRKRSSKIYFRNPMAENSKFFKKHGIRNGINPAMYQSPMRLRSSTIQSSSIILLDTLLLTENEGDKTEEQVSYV
5-HT7 receptor, sequence (P34969 whole entry): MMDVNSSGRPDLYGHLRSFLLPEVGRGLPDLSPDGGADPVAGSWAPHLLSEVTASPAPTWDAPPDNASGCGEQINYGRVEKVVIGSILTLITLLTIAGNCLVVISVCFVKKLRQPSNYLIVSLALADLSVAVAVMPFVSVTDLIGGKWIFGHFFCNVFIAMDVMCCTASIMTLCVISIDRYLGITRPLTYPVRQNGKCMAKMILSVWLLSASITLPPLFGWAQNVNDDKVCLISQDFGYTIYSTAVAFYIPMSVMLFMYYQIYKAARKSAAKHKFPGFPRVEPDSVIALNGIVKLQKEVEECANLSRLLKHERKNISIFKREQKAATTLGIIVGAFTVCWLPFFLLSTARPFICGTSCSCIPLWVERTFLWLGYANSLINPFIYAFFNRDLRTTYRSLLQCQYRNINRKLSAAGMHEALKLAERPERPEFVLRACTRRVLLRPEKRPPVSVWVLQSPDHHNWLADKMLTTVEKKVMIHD
D2 receptor, sequence (P14416 whole entry): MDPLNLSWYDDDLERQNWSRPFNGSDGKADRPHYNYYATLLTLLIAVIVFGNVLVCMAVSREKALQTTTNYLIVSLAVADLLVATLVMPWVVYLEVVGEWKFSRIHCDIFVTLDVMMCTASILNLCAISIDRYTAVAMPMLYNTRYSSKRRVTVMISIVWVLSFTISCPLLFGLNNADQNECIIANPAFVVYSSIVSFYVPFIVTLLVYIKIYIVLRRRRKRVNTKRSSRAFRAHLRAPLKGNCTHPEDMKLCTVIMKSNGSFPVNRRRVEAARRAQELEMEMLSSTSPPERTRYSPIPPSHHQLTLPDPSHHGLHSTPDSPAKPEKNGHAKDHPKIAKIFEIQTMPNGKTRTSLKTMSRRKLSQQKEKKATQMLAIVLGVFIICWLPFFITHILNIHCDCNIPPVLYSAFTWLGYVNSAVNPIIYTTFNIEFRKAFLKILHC

Question: Which “pKi ± SEM 5-HT2A” value (5-HT2A receptor; Table 4, Group 2 analogs) does the source give for `C1=C(CCN2CCc3ccccc3C2)CCc2ccccc21` [Compound 2b, 2-(2-(3,4-dihydronaphthalen-2-yl)ethyl)-1,2,3,4-tetrahydroisoquinoline] here?
Answer: (6.01 ± 0.09)

Question: And the Ki (D3 receptor; Table 4, Group 2 analogs)?
Answer: 184 nM

Question: And the “pKi ± SEM D3” value (D3 receptor; Table 4, Group 2 analogs)?
Answer: (6.73 ± 0.04)

Question: And the Ki (5-HT1A receptor; Table 4, Group 2 analogs)?
Answer: 138 nM

Question: What about the “pKi ± SEM D4” value (D4 receptor; Table 4, Group 2 analogs) of the same compound?
Answer: (6.85 ± 0.05)

Question: And the “pKi ± SEM H1” value (histamine H1 receptor; Table 4, Group 2 analogs)?
Answer: (5.84 ± 0.07)

Question: What about the Ki (5-HT2B receptor) of the same compound?
Answer: 126 nM

Question: And the “pKi ± SEM 5-HT2C” value (5-HT2C receptor; Table 4, Group 2 analogs)?
Answer: (5.54 ± 0.07)

Question: And the Ki (5-HT7 receptor; Table 4, Group 2 analogs)?
Answer: 65 nM

Question: And the “pKi ± SEM 5-HT7” value (5-HT7 receptor; Table 4, Group 2 analogs)?
Answer: (7.18 ± 0.07)

Question: Which “pKi ± SEM 5-HT2A” value (5-HT2A receptor; Table 3, Group 1 analogs) does the source give for `Br.c1ccc2c(c1)CCN(CCCc1nc3ccccc3s1)C2` [Compound 1b, 2-(3-(3,4-dihydroisoquinolin-2(1H)-yl)propyl)benzo[d]thiazole hydrobromide] here?
Answer: (5.69 ± 0.06)

Question: What about the Ki (D3 receptor; Table 3, Group 1 analogs) of the same compound?
Answer: 80 nM

Question: And the Ki (5-HT1A receptor; Table 3, Group 1 analogs)?
Answer: 95 nM

Question: And the “pKi ± SEM D4” value (D4 receptor; Table 3, Group 1 analogs)?
Answer: (7.39 ± 0.04)

Question: And the “pKi ± SEM H1” value (histamine H1 receptor; Table 3, Group 1 analogs)?
Answer: (6.09 ± 0.08)

Question: What about the Ki (5-HT2B receptor; Table 3, Group 1 analogs) of the same compound?
Answer: 18 nM

Question: What about the “pKi ± SEM 5-HT2C” value (5-HT2C receptor; Table 3, Group 1 analogs) of the same compound?
Answer: (5.93 ± 0.05)

Question: And the Ki (5-HT7 receptor; Table 3, Group 1 analogs)?
Answer: 37 nM

Question: For `Cl.O=C(CCCN1CCc2ccccc2C1)c1ccc(Cl)cc1` [Compound 16, 1-(4-Chlorophenyl)-4-(3,4-dihydroisoquinolin-2(1H)-yl) butan-1-one hydrochloride], which melting point is on record?
Answer: 209 to 210 °C

Question: With `O=C(CCCN1CCCc2ccccc21)c1ccc(Cl)cc1` [Compound 3c, 1-(4-Chlorophenyl)-4-(3,4-dihydroquinolin-1(2H)-yl) butan-1-one] as the compound, how does the melting point read?
Answer: 192 to 193 °C

Question: What about the Ki (5-HT2C receptor; read-out: Ki 5-HT2C) of the same compound?
Answer: > 10000 nM

Question: With `Cl.O=C(CCCN1CCc2ccccc2CC1)c1ccc(Cl)cc1` [Compound 3f, 1-(4-Chlorophenyl)-4-(4,5-dihydro-1H-benzo[d]azepin-3(2H)-yl)butan-1-one hydrochloride] as the compound, how does the “pKi ± SEM 5-HT2A” value (5-HT2A receptor; Table 5, Group 3 analogs) read?
Answer: (6.55 ± 0.03)

Question: What about the Ki (D3 receptor) of the same compound?
Answer: 106 nM

Question: What about the Ki (5-HT1A receptor; [1]) of the same compound?
Answer: 214 nM

Question: And the “pKi ± SEM D4” value (D4 receptor; Table 5, Group 3 analogs)?
Answer: (7.09 ± 0.04)

Question: And the “pKi ± SEM H1” value (histamine H1 receptor; Table 5, Group 3 analogs)?
Answer: (6 ± 0.3)

Question: And the Ki (histamine H1 receptor; [1])?
Answer: 1090 nM

Question: And the “pKi ± SEM 5-HT2B” value (5-HT2B receptor; Table 5, Group 3 analogs)?
Answer: (6.26 ± 0.05)

Question: What about the “pKi ± SEM 5-HT2C” value (5-HT2C receptor; Table 5, Group 3 analogs) of the same compound?
Answer: (6.21 ± 0.07)

Question: And the “pKi ± SEM 5-HT7” value (5-HT7 receptor; Table 5, Group 3 analogs)?
Answer: (6.68 ± 0.05)

Question: What about the Ki (5-HT7 receptor; [1]) of the same compound?
Answer: 138 nM

Question: Which melting point does the source give for `Cl.O=C(CCCN1CCCCc2ccccc21)c1ccc(Cl)cc1` [Compound 3d, 1-(4-Chlorophenyl)-4-(2,3,4,5-tetrahydro-1H-benzo[b]azepin-1-yl)butan-1-one hydrochloride] here?
Answer: 192 to 193 °C

Question: Which Ki (5-HT2C receptor; Table 1, FIG. 7 analogs, read-out: pKi 5-HT2C (converted)) does the source give for `N#Cc1ccc(C(=O)CCCN2CCc3ccccc3C2)cc1` [Compound 12, 4-(4-(3,4-Dihydroisoquinolin-2(1H)-yl)butanoyl)benzonitrile] here?
Answer: 38 nM

Question: For `O=C(CCCN1CCc2ccccc2C1)c1ccc(O)cc1` [Compound 15, 4-(3,4-Dihydroisoquinolin-2(1H)-yl)-1-(4-hydroxyphenyl) butan-1-one hydrochloride], which Ki (5-HT2C receptor; Table 1, FIG. 7 analogs, read-out: Ki 5-HT2C) is on record?
Answer: 8.2 nM

Question: For `Clc1ccc(C(=CCCN2CCc3ccccc3C2)c2ccc(Cl)cc2)cc1` [Compound 2c, 2-(4,4-Bis(4-chlorophenyl)but-3-en-1-yl)-1,2,3,4-tetrahydroisoquinineol hydrobromide], which Ki (D3 receptor; Table 4, Group 2 analogs) is on record?
Answer: 150 nM

Question: What about the “pKi ± SEM D3” value (D3 receptor; Table 4, Group 2 analogs) of the same compound?
Answer: (6.8 ± 0.1)

Question: And the “pKi ± SEM H1” value (histamine H1 receptor; Table 4, Group 2 analogs)?
Answer: (6 ± 0.07)

Question: And the Ki (5-HT2C receptor; Table 4, Group 2 analogs, read-out: Ki 5-HT2C)?
Answer: 2030 nM

Question: What about the “pKi ± SEM 5-HT7” value (5-HT7 receptor; Table 4, Group 2 analogs) of the same compound?
Answer: (6.3 ± 0.07)

Question: With `c1ccc2c(c1)CCN(CCCc1nc3ccccc3[nH]1)C2` [Compound 1d, 2-(3-(1H-benzo[d]imidazol-2-yl)propyl)-1,2,3,4-tetrahydroisoquinoline] as the compound, how does the Ki (D2 receptor) read?
Answer: 915 nM

Question: What about the “pKi ± SEM D2” value (D2 receptor) of the same compound?
Answer: 6.09 ± 0.09

Question: What about the Ki (D3 receptor; Table 3, Group 1 analogs) of the same compound?
Answer: 2180 nM

Question: And the “pKi ± SEM 5-HT1A” value (5-HT1A receptor; Table 3, Group 1 analogs)?
Answer: 7.19 ± 0.07

Question: And the “pKi ± SEM D4” value (D4 receptor; Table 3, Group 1 analogs)?
Answer: 6.9 ± 0.07

Question: What about the Ki (histamine H1 receptor; Table 3, Group 1 analogs) of the same compound?
Answer: 290 ± 40 nM

Question: And the Ki (5-HT7 receptor; Table 3, Group 1 analogs)?
Answer: 91 nM
